Experimental data taken from patent US20180071317A1, “USE OF AGENTS THAT ALTER THE PERITUMORAL ENVIRONMENT FOR THE TREATMENT OF CANCER” (SERVICIO ANDALUZ DE SALUD, priority 2011, published 2018).

Tests used:
[1] = system: human primary fibroblasts (PHF); test: Marker expression (immunohistochemistry) in human primary fibroblasts with SP alone or with NK1 antagonists; format: cell-based; details: SP 1 μM + antagonist 1 μM; 48 h;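 also: primary human dermal fibroblasts, immunostained with rabbit polyclonal antibodies against each marker, value is percentage of stained cells among all cells counted in 20 fields at 400× per section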
Procedure: These PHF were obtained and purified from samples obtained from the dermis of the skin of healthy volunteers as described in De Bari et al (De Bari et al. 2001). Briefly, small pieces of skin dermis were digested in a solution of hyaluronidase (Sigma-Aldrich, USA) at a concentration of 1 mg/ml for 15 minutes at 37° C. and then treated with 6 mg/ml collagenase type IV (Invitrogen) for 2 hours at 37° C. Then, the cells were washed, resuspended in DMEM culture medium with high glucose (Dulbecco's Modified Eagle's Medium, Invitrogen) supplemented with 1% antibiotic-antimycotic (Invitrogen) and 1% pyruvate Sodium (Invitrogen), and seeded in culture dishes at a concentration of 10,000 cells per square centimeter. When the cells reached confluence, adherent cells were detached using 0.5% sterile trypsin (Invitrogen) and used between passages 3 and 9. For tests shown below, the PHF were plated in 24-well plates at a concentration of 25,000 cells per well.
After 48 hours of culture, cells were harvested and paraffin cell-blocks for immunohistochemical analysis were constructed, as previously explained in Example 1.
In immunohistochemical assays the expression of the following markers were studied: TGFα (SAB4502953), TGF1 (SAB4502954), TGFβ2 (SAB4502956), TGFβ3 (SAB4502957), SPARC (HPA002989), MMP-3 (HPA007875) MMP-7 (SAB4501894), MMP-9 (SAB4501896), MMP-11 (SAB4501898), MMP-13 (SAB4501900) and MMP-14 (SAB4501901) using specific antibodies against them. All antibodies used were rabbit polyclonal antibodies obtained from Sigma-Aldrich and were used at a concentration of 1/1000. All experiments were carried out sixfold.
On each of the six sections cell counts were performed in 20 high power fields (400×) through an Olympus microscope (model CX31) to assess the immunostaining. On each of the fields total cell number and number of cells displaying immunostaining were counted, being then the percentage of cells displaying said immunostaining.

[2] = system: fibroblasts (PHF) co-cultured with tumor cells of human pancreatic adenocarcinoma (CAPAN-1); test: Marker expression (IHC) in PHF co-cultured with CAPAN-1 tumor cells; format: cell-based; details: co-culture with CAPAN-1; SP 1 μM + antagonist 1 μM; 48 h;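 also: cultures grown in fresh plasma from a healthy human donor, run in six replicates, value is percent of fibroblasts positive for each marker, compared with fibroblasts cultured alone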
[3] = system: fibroblasts (PHF) co-cultured with tumor cells of human breast carcinoma (MCF-7); test: Marker expression (IHC) in PHF co-cultured with MCF-7 tumor cells; format: cell-based; details: co-culture with MCF-7; SP 1 μM + antagonist 1 μM; 48 h;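 also: value is the percentage of fibroblasts positive for each marker, with fibroblasts cultured alone as reference, grown in fresh plasma from a healthy donor, six replicates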
Procedure: (§1) All cultures were maintained 48 hours, following which the same cells were included in paraffin blocks for subsequent analysis of the expression of different markers by immunohistochemistry (see Example 1). […] All experiments were carried out sixfold. Analyzed markers in fibroblast cells (stromal cells) were: TGF-α, TGF-β1, TGF-β2, TGF-β3, SPARC, MMP-3, MMP-7, MMP-9, MMP-11, MMP-13 and MMP-14.

[4] = system: fibroblasts (PHF) co-cultured with tumor cells, ovarian carcinoma (EFO-27); test: Marker expression (IHC) in PHF co-cultured with EFO-27 tumor cells; format: cell-based, human; details: co-culture with EFO-27; SP 1 μM + antagonist 1 μM; 48 h;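 also: values are the percentage of PHF fibroblasts positive for each marker, cultured in fresh plasma from a healthy human donor, each experiment run in six replicates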
Procedure: as §1

[5] = system: fibroblasts (PHF) co-cultured with tumor cells of human cervix carcinoma (KB); test: Marker expression (IHC) in PHF co-cultured with KB tumor cells; format: cell-based; details: co-culture with KB; SP 1 μM + antagonist 1 μM; 48 h;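 also: percentage of PHF fibroblasts showing expression of each marker, cultured in fresh blood plasma from a healthy human donor, six replicates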
Procedure: as §1

[6] = system: fibroblasts (PHF) co-cultured with tumor cells of lung carcinoma (A-427); test: Marker expression (IHC) in PHF co-cultured with A-427 tumor cells; format: cell-based, human; details: co-culture with A-427 lung carcinoma; SP 1 μM + antagonist 1 μM; 48 h;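 also: cultures grown in human blood plasma from a healthy donor, value is the percentage of fibroblasts positive for each marker, six replicates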
Procedure: as §1

[7] = system: fibroblasts (PHF) co-cultured with human glioma tumor cells (GAMG); test: Marker expression (IHC) in PHF co-cultured with GAMG tumor cells; format: cell-based; details: co-culture with GAMG; SP 1 μM + antagonist 1 μM; 48 h;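 also: percentage of PHF fibroblasts positive for each marker, cultured in fresh plasma from a healthy donor, six replicates, with fibroblasts cultured alone as reference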
Procedure: as §1

[8] = system: fibroblasts (PHF) cells co-cultured with human T lymphoma tumor (DERL-7); test: Marker expression (IHC) in PHF co-cultured with DERL-7 tumor cells; format: cell-based; details: PHF co-cultured with DERL-7 + SP + NK1 antagonist
Procedure: All cultures were maintained 48 hours, following which the same cells were included in paraffin blocks for subsequent analysis of the expression of different markers by immunohistochemistry (see Example 1). The primary antibodies used to perform immunohistochemical assays and their concentration are detailed in Example 2. All experiments were carried out sixfold. Analyzed markers in fibroblast cells (stromal cells) were: TGF-α, TGF-β1, TGF-β2, TGF-β3, SPARC, MMP-3, MMP-7, MMP-9, MMP-11, MMP-13 and MMP-14.

[9] = system: fibroblast cells in co-culture with cells isolated from primary human tumors; test: Marker expression (IHC) in fibroblasts co-cultured with primary human tumor cells (colon, pancreatic, lung carcinoma, glioma, multiple myeloma); format: cell-based
Procedure: To check that the interaction of the human primary tumor cells with stromal cells, [human fibroblasts,] stimulates the secretion of substances of importance for survival and tumor progression, co-cultures were performed using stromal cells with human fibroblast-tumor cells obtained directly from primary human tumors.
On this occasion, in order to identify, using immunohistochemical techniques, the secretion of substances of importance for the survival and progression of tumors, the following antibodies were used: TGF-α (SAB4502953), TGF-β1 (SAB4502954), TGF-β2 (SAB4502956), TGF-β3 (SAB4502957), SPARC (HPA002989), MMP-3 (HPA007875), MMP-7 (SAB4501894), MMP-9 (SAB4501896), MMP-11 (SAB4501898) MMP-13 (SAB4501900) and MMP-14 (SAB4501901) using specific antibodies against them. All antibodies used were rabbit polyclonal antibodies obtained from Sigma-Aldrich and were used at a concentration of 1/1000 to achieve these immunohistochemical studies. All experiments were carried out sixfold.

[10] = Primary tumor cells (colon carcinoma) co-cultured + fibroblast + SP (1 μM) + NK1 antagonist 1 μM
[11] = co-culture with cells isolated from glioma, SP 1 μM + antagonist 1 μM
[12] = co-culture with cells isolated from lung cancer, SP 1 μM + antagonist 1 μM
[13] = co-culture with cells isolated from multiple myeloma, SP 1 μM + antagonist 1 μM
[14] = co-culture with cells isolated from pancreatic carcinoma, SP 1 μM + antagonist 1 μM

C[C@@H](O[C@H]1OCCN(Cc2n[nH]c(=O)[nH]2)[C@H]1c1ccc(F)cc1)c1cc(C(F)(F)F)cc(C(F)(F)F)c1 [Aprepitant]
0%: PHF cells expressing MMP-3 [1] | PHF cells expressing MMP-7 [1] | PHF cells expressing MMP-9 [1] | PHF cells expressing MMP-11 [1] | PHF cells expressing MMP-13 [1] | PHF cells expressing MMP-14 [1] | PHF cells expressing SPARC [1] | PHF cells expressing TGFα [1] | PHF cells expressing TGFβ 1 [1] | PHF cells expressing TGFβ 2 [1] | PHF cells expressing TGFβ 3 [1] | PHF cells expressing MMP-3 [2] | PHF cells expressing MMP-7 [2] | PHF cells expressing MMP-9 [2] | PHF cells expressing MMP-11 [2] | PHF cells expressing MMP-13 [2] | PHF cells expressing MMP-14 [2] | PHF cells expressing SPARC [2] | PHF cells expressing TGF-α [2] | PHF cells expressing TGF-β1 [2] | PHF cells expressing TGF-β2 [2] | PHF cells expressing TGF-β3 [2] | PHF cells expressing MMP-3 [3] | PHF cells expressing MMP-7 [3] | PHF cells expressing MMP-9 [3] | PHF cells expressing MMP-11 [3] | PHF cells expressing MMP-13 [3] | PHF cells expressing MMP-14 [3] | PHF cells expressing SPARC [3] | PHF cells expressing TGF-α [3] | PHF cells expressing TGF-β1 [3] | PHF cells expressing TGF-β2 [3] | PHF cells expressing TGF-β3 [3] | PHF cells expressing MMP-3 [4] | PHF cells expressing MMP-7 [4] | PHF cells expressing MMP-9 [4] | PHF cells expressing MMP-11 [4] | PHF cells expressing MMP-13 [4] | PHF cells expressing MMP-14 [4] | PHF cells expressing SPARC [4] | PHF cells expressing TGF-α [4] | PHF cells expressing TGF-β1 [4] | PHF cells expressing TGF-β2 [4] | PHF cells expressing TGF-β3 [4] | PHF cells expressing MMP-3 [5] | PHF cells expressing MMP-7 [5] | PHF cells expressing MMP-9 [5] | PHF cells expressing MMP-11 [5] | PHF cells expressing MMP-13 [5] | PHF cells expressing MMP-14 [5] | PHF cells expressing SPARC [5] | PHF cells expressing TGF-α [5] | PHF cells expressing TGF-β1 [5] | PHF cells expressing TGF-β2 [5] | PHF cells expressing TGF-β3 [5] | PHF cells expressing MMP-3 [6] | PHF cells expressing MMP-7 [6] | PHF cells expressing MMP-9 [6] | PHF cells expressing MMP-11 [6] | PHF cells expressing MMP-13 [6] | PHF cells expressing MMP-14 [6] | PHF cells expressing SPARC [6] | PHF cells expressing TGF-α [6] | PHF cells expressing TGF-β1 [6] | PHF cells expressing TGF-β2 [6] | PHF cells expressing TGF-β3 [6] | PHF cells expressing MMP-3 [7] | PHF cells expressing MMP-7 [7] | PHF cells expressing MMP-9 [7] | PHF cells expressing MMP-11 [7] | PHF cells expressing MMP-13 [7] | PHF cells expressing MMP-14 [7] | PHF cells expressing SPARC [7] | PHF cells expressing TGF-α [7] | PHF cells expressing TGF-β1 [7] | PHF cells expressing TGF-β2 [7] | PHF cells expressing TGF-β3 [7] | cells expressing MMP-3 [8] | cells expressing MMP-7 [8] | cells expressing MMP-9 [8] | cells expressing MMP-11 [8] | cells expressing MMP-13 [8] | cells expressing MMP-14 [8] | cells expressing SPARC [8] | cells expressing TGF-α [8] | cells expressing TGF-β1 [8] | cells expressing TGF-β2 [8] | cells expressing TGF-β3 [8] | Percentage of fibroblast cells which expressed MMP-3 [9, 10] | Percentage of fibroblast cells which expressed MMP-7 [9, 10] | Percentage of fibroblast cells which expressed MMP-9 [9, 10] | Percentage of fibroblast cells which expressed MMP-11 [9, 10] | Percentage of fibroblast cells which expressed MMP-13 [9, 10] | Percentage of fibroblast cells which expressed MMP-14 [9, 10] | Percentage of fibroblast cells which expressed SPARC [9, 10] | Percentage of fibroblast cells which expressed TGFα [9, 10] | Percentage of fibroblast cells which expressed TGFβ1 [9, 10] | Percentage of fibroblast cells which expressed TGFβ2 [9, 10] | Percentage of fibroblast cells which expressed TGFβ3 [9, 10] | Percentage of fibroblast cells which expressed MMP-3 [9, 11] | Percentage of fibroblast cells which expressed MMP-7 [9, 11] | Percentage of fibroblast cells which expressed MMP-9 [9, 11] | Percentage of fibroblast cells which expressed MMP-11 [9, 11] | Percentage of fibroblast cells which expressed MMP-13 [9, 11] | Percentage of fibroblast cells which expressed MMP-14 [9, 11] | Percentage of fibroblast cells which expressed SPARC [9, 11] | Percentage of fibroblast cells which expressed TGFα [9, 11] | Percentage of fibroblast cells which expressed TGFβ1 [9, 11] | Percentage of fibroblast cells which expressed TGFβ2 [9, 11] | Percentage of fibroblast cells which expressed TGFβ3 [9, 11] | Percentage of fibroblast cells which expressed MMP-3 [9, 12] | Percentage of fibroblast cells which expressed MMP-7 [9, 12] | Percentage of fibroblast cells which expressed MMP-9 [9, 12] | Percentage of fibroblast cells which expressed MMP-11 [9, 12] | Percentage of fibroblast cells which expressed MMP-13 [9, 12] | Percentage of fibroblast cells which expressed MMP-14 [9, 12] | Percentage of fibroblast cells which expressed SPARC [9, 12] | Percentage of fibroblast cells which expressed TGFα [9, 12] | Percentage of fibroblast cells which expressed TGFβ1 [9, 12] | Percentage of fibroblast cells which expressed TGFβ2 [9, 12] | Percentage of fibroblast cells which expressed TGFβ3 [9, 12] | Percentage of fibroblast cells which expressed MMP-3 [9, 13] | Percentage of fibroblast cells which expressed MMP-7 [9, 13] | Percentage of fibroblast cells which expressed MMP-9 [9, 13] | Percentage of fibroblast cells which expressed MMP-11 [9, 13] | Percentage of fibroblast cells which expressed MMP-13 [9, 13] | Percentage of fibroblast cells which expressed MMP-14 [9, 13] | Percentage of fibroblast cells which expressed SPARC [9, 13] | Percentage of fibroblast cells which expressed TGFα [9, 13] | Percentage of fibroblast cells which expressed TGFβ1 [9, 13] | Percentage of fibroblast cells which expressed TGFβ2 [9, 13] | Percentage of fibroblast cells which expressed TGFβ3 [9, 13] | Percentage of fibroblast cells which expressed MMP-3 [9, 14] | Percentage of fibroblast cells which expressed MMP-7 [9, 14] | Percentage of fibroblast cells which expressed MMP-9 [9, 14] | Percentage of fibroblast cells which expressed MMP-11 [9, 14] | Percentage of fibroblast cells which expressed MMP-13 [9, 14] | Percentage of fibroblast cells which expressed MMP-14 [9, 14] | Percentage of fibroblast cells which expressed SPARC [9, 14] | Percentage of fibroblast cells which expressed TGFα [9, 14] | Percentage of fibroblast cells which expressed TGFβ1 [9, 14] | Percentage of fibroblast cells which expressed TGFβ2 [9, 14] | Percentage of fibroblast cells which expressed TGFβ3 [9, 14]
